From patent US10233195B2, “Anti-fibrotic pyridinones” (InterMune, Inc., priority 2014, dated 2019)
pEC50, pIC50: −log10 of the molar value.

Test system: TGF-b induced Endothelin-1 production
Assay: ET-1 assay: inhibitory effect on TGF-b induced endothelin-1 production
Format: cell-based
Settings: Homo sapiens, Fibroblast; fibroblasts, stimulant (TGFb, serum, LPA etc), ET-1 in media by ELISA, 4-parameter fit
Method in brief: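 Fibroblasts (primary human lung/dermal, HFL-1, 3T3) serum-starved 0-48 h, preincubated ~30 min with compound, then stimulated (TGFb, serum or LPA) for 16-48 h. Secreted ET-1 measured by ELISA; EC50 from 4-parameter logistic fit, with CC50 from ATPlite in the same wells.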

SMILES | pEC50
CC(=O)c1ccc(=O)n(-c2ccc(F)cc2)c1 [Compound 13] | < 3.70
COCCOCCOCCOc1ccc(-n2cc(C(C)=O)ccc2=O)cc1 [Compound 21] | < 3.70
O=c1ccc2c(n1-c1ccc(OC(F)(F)F)cc1)CCC2 [Compound 28] | 3.70 to 4.30
Cc1cn(-c2ccccc2)c(=O)c2c1CCCC2 [Compound 29] | 3.70 to 4.30
Cn1cc(-c2cn(-c3ccccc3)c(=O)c3c2CCCC3)cn1 [Compound 31] | > 4.30
Cn1cc(-c2cn(-c3ccc(OC(F)(F)F)cc3)c(=O)c3cccnc23)cn1 [Compound 43] | > 4.30
O=c1c2nccnc2c(-c2ccc(F)cc2)cn1-c1ccc(OC(F)(F)F)cc1 [Compound 46] | > 4.30
Cn1cc(-c2cn(-c3ccc(OC(F)(F)F)cc3)c(=O)c3nccnc23)cn1 [Compound 47] | > 4.30
Cc1cn(C)c2c(=O)n(-c3ccc(OC(F)(F)F)cc3)cc(-c3ccc(F)cc3)c12 [Compound 49] | > 4.30
Cn1cc(-c2cn(-c3ccc(OC(F)(F)F)cc3)c(=O)c3c2OCC(=O)N3Cc2ccccc2)cn1 [Compound 50] | < 3.70
O=C1COc2c(-c3ccc(F)cc3)cn(-c3ccc(OC(F)(F)F)cc3)c(=O)c2N1Cc1ccccc1 [Compound 51] | < 3.70
O=c1c2scnc2c(-c2cn[nH]c2)cn1-c1ccc(OC(F)(F)F)cc1 [Compound 582] | > 4.30
Cc1nc2c(-c3cnn(Cc4ccccc4)c3)cn(-c3ccc(OC(F)(F)F)cc3)c(=O)c2s1 [Compound 586] | > 4.30
Cc1nc2c(-c3cn[nH]c3)cn(-c3ccc(OC(F)(F)F)cc3)c(=O)c2s1 [Compound 587] | > 4.30
CCn1ccc2c(-c3cn[nH]c3)cn(-c3ccc(OC(F)(F)F)cc3)c(=O)c21 [Compound 593] | > 4.30
Cn1cc(-c2cn(-c3ccc(OC(F)(F)F)cc3)c(=O)c3c2ccn3Cc2ccccc2)cn1 [Compound 596] | > 4.30
Cn1cc(-c2cn(-c3ccc(C#N)cc3)c(=O)c3c2ccn3C)cn1 [Compound 597] | < 3.70
Cn1ccc2c(-c3cn[nH]c3)cn(-c3ccc(Cl)cc3)c(=O)c21 [Compound 598] | > 4.30
Cn1cc(-c2cn(-c3ccc(Cl)cc3)c(=O)c3c2ccn3C)cn1 [Compound 599] | > 4.30
N#Cc1ccc(-n2cc(-c3cn[nH]c3)c3cc[nH]c3c2=O)cc1 [Compound 608] | 3.70 to 4.30
CCn1ccc2c(-c3cnn(C)c3)c[nH]c(=O)c21 [Compound 611] | > 4.30

SMILES | pEC50
Cn1cc(-c2c[nH]c(=O)c3[nH]ccc23)cn1 [Compound 612] | > 4.30
Cn1cc(-c2cn(-c3ccc(OC(F)(F)F)cc3)c(=O)c3c2ccn3CCO)cn1 [Compound 614] | > 4.30
CCn1nnc2c(=O)[nH]cc(-c3cnn(C)c3)c21 [Compound 622] | < 3.70
Cn1cc(-c2c[nH]c(=O)c3[nH]nnc23)cn1 [Compound 623] | < 3.70
Cc1cc(=O)n(-c2cccc(NC(N)=O)c2)cc1-c1cnn(C)c1 [Compound 628] | > 4.30
CCn1nnc2c(-c3cn[nH]c3)cn(-c3ccc(OC(F)(F)F)cc3)c(=O)c21 [Compound 634] | > 4.30
O=c1c(-c2ccc(F)cc2)c(-c2ccc(OC(F)(F)F)cc2)c1=O [Compound 666] | > 4.30
CCOc1ccc(-c2c(-c3ccc(F)cc3)c(=O)c2=O)c(C)c1 [Compound 667] | > 4.30
CCn1cnc2c(-c3cn[nH]c3)cn(-c3ccc(OC(F)(F)F)cc3)c(=O)c21 [Compound 669] | > 4.30
CCn1cc(-c2cn(-c3ccc(OC(F)(F)F)cc3)c(=O)c3c2ncn3CC)cn1 [Compound 670] | > 4.30
CCn1cnc2c(-c3cnn(C(C)C)c3)cn(-c3ccc(OC(F)(F)F)cc3)c(=O)c21 [Compound 671] | > 4.30
O=c1c2[nH]cnc2c(-c2cn[nH]c2)cn1-c1ccc(OC(F)(F)F)cc1 [Compound 672] | > 4.30
CC(C)n1cc(-c2cn(-c3ccc(OC(F)(F)F)cc3)c(=O)c3c2ncn3C)cn1 [Compound 673] | > 4.30
Cc1nc2c(=O)n(-c3ccc(OC(F)(F)F)cc3)cc(-c3cnn(C)c3)c2n1C [Compound 674] | 3.70 to 4.30
Cc1nc2c(=O)n(-c3ccc(OC(F)(F)F)cc3)cc(-c3cn[nH]c3)c2n1C [Compound 675] | > 4.30
CC(C)n1nnc2c(-c3cnn(C)c3)cn(-c3ccc(OC(F)(F)F)cc3)c(=O)c21 [Compound 676] | > 4.30
O=c1c2[nH]nnc2c(-c2cn[nH]c2)cn1-c1ccc(OC(F)(F)F)cc1 [Compound 678] | 3.70 to 4.30
Cn1cc(-c2cn(-c3ccc(OC(F)(F)F)cc3)c(=O)c3nn(CCF)nc23)cn1 [Compound 679] | > 4.30
CCn1nc2c(-c3ccc(F)cc3)cn(-c3ccc(OC(F)(F)F)cc3)c(=O)c2n1 [Compound 680] | < 3.70
Cn1cc(-c2cn(-c3ccc(OC(F)(F)F)cc3)c(=O)c3c2CCN3C(=O)OC(C)(C)C)cn1 [Compound 690] | > 4.30
CCOCCn1ccc2c(-c3cn[nH]c3)cn(-c3ccc(OC(F)(F)F)cc3)c(=O)c21 [Compound 691] | > 4.30

SMILES | pEC50
CC(C)OCCn1ccc2c(-c3cn[nH]c3)cn(-c3ccc(OC(F)(F)F)cc3)c(=O)c21 [Compound 692] | > 4.30
CC(=O)N1CCc2c(-c3cnn(C)c3)cn(-c3ccc(OC(F)(F)F)cc3)c(=O)c21 [Compound 693] | 3.70 to 4.30
CCn1ccc2c(=O)n(-c3ccc(OC(F)(F)F)cc3)cc(-c3cnn(C)c3)c21 [Compound 694] | > 4.30
Cn1cc(-c2cn(-c3ccc(OC(F)(F)F)cc3)c(=O)c3cc[nH]c23)cn1 [Compound 695] | > 4.30
CCOc1ccc(-n2cc(-c3cnn(C)c3)c(OCCOC(C)C)cc2=O)c(C)c1 [Compound 696] | 3.70 to 4.30
CCOc1ccc(-n2cc(-c3cnn(C)c3)c(OCCOCCOC)cc2=O)c(C)c1 [Compound 697] | 3.70 to 4.30
CCOc1ccc(-n2cc(-c3cnn(C)c3)c(OC3CCOCC3)cc2=O)c(C)c1 [Compound 698] | 3.70 to 4.30
CCOc1ccc(-n2cc(-c3cnn(C)c3)c(NCc3ccccn3)cc2=O)c(C)c1 [Compound 699] | 3.70 to 4.30
CCOc1ccc(-n2cc(-c3cnn(C)c3)c(NCc3ccncc3)cc2=O)c(C)c1 [Compound 700] | 3.70 to 4.30
CCOc1ccc(-n2cc(-c3cnn(C)c3)c(NCc3cccnc3)cc2=O)c(C)c1 [Compound 701] | > 4.30
CCOc1ccc(-n2cc(-c3cnn(C)c3)c(NCc3ccc(F)cc3F)cc2=O)c(C)c1 [Compound 702] | > 4.30
CCOc1ccc(-n2cc(-c3cnn(C)c3)c(NCc3cc(F)cc(F)c3)cc2=O)c(C)c1 [Compound 703] | > 4.30
CCOc1ccc(-n2cc(-c3cnn(C)c3)c(NCc3ccc(C#N)cc3)cc2=O)c(C)c1 [Compound 704] | > 4.30
CCOc1ccc(-n2cc(-c3cnn(C)c3)c(N(C)Cc3ccccc3)cc2=O)c(C)c1 [Compound 705] | > 4.30
CCOc1ccc(CNc2cc(=O)n(-c3ccc(OCC)cc3C)cc2-c2cnn(C)c2)c(C)c1 [Compound 706] | > 4.30
CCOc1ccc(-n2cc(-c3cnn(C)c3)c(NCc3ccc(OCCOC)cc3)cc2=O)c(C)c1 [Compound 707] | > 4.30
Cn1cc(-c2cc(=O)n(-c3ccc(OC(F)(F)F)cc3)cc2-c2cnn(C)c2)cn1 [Compound 708] | 3.70 to 4.30
O=c1ccc(C(F)(F)F)cn1-c1ccc(NCCN2CCN(CCO)CC2)cc1Cl [Compound 709] | 3.70 to 4.30
Cc1nc2ccn(-c3ccc(OC(F)(F)F)cc3)c(=O)c2s1 [compound 585] | < 3.70

Test system: Fibroblasts (primary human lung and dermal, HFL-1, 3T3 etc)
Assay: Cell proliferation assay (BrdU incorporation)
Format: cell-based
Settings: HFL1, stimulant (LPA, TGFb, serum etc), 50% inhibition of the increase of BrdU incorporation
Experimental: Assay of Inhibitory Effect on Cell Proliferation (BrdU Incorporation)
Fibroblasts (primary human lung and dermal, HFL-1, 3T3 etc) were plated on a 96-well plate and serum starved for 24-48 hours. The media were then exchanged for media containing stimulants (LPA, TGFb, serum etc) and cultured further for 16-24 hours before BrdU addition. After culturing for another 8 hours, cells were washed with PBS and the amount of BrdU incorporated into the cells was assayed by absorbance at 450 nm using the Cell proliferation ELISA system (RPN250, Amersham LIFE SCIENCE). The difference between the amount of BrdU incorporated in the stimulant-added well and the amount of BrdU incorporated in the well containing no stimulant represented the amount of BrdU incorporation accelerated by stimulant. The increase of BrdU incorporation without the addition of test compounds was set as 100% and the concentration of compound with 50% inhibition in the increase of BrdU incorporation (IC50 value) was determined. The test compounds were added 0-30 min before stimulant addition.
Compounds of some embodiments were prepared according to synthetic methods described herein and assay data obtained for IC50 for BrdU inhibition. The assay data obtained is presented in Table 3, in which A=less than 50 μM, B=greater than or equal to 50 μM and less than or equal to 200 μM; and C=greater than 200 μM.

SMILES | pIC50
CC(=O)c1ccc(=O)n(-c2ccc(F)cc2)c1 [Compound 13] | < 3.70
COCCOCCOCCOc1ccc(-n2cc(C(C)=O)ccc2=O)cc1 [Compound 21] | < 3.70
O=c1ccc2c(n1-c1ccc(OC(F)(F)F)cc1)CCC2 [Compound 28] | 3.70 to 4.30
Cc1cn(-c2ccccc2)c(=O)c2c1CCCC2 [Compound 29] | < 3.70
Cn1cc(-c2cn(-c3ccccc3)c(=O)c3c2CCCC3)cn1 [Compound 31] | 3.70 to 4.30
Cn1cc(-c2cn(-c3ccc(OC(F)(F)F)cc3)c(=O)c3nsnc23)cn1 [Compound 41] | > 4.30
Cn1cc(-c2cn(-c3ccc(OC(F)(F)F)cc3)c(=O)c3cccnc23)cn1 [Compound 43] | < 3.70
O=c1c2nccnc2c(-c2ccc(F)cc2)cn1-c1ccc(OC(F)(F)F)cc1 [Compound 46] | > 4.30
Cn1cc(-c2cn(-c3ccc(OC(F)(F)F)cc3)c(=O)c3nccnc23)cn1 [Compound 47] | > 4.30
Cc1cn(C)c2c(=O)n(-c3ccc(OC(F)(F)F)cc3)cc(-c3ccc(F)cc3)c12 [Compound 49] | > 4.30
Cn1cc(-c2cn(-c3ccc(OC(F)(F)F)cc3)c(=O)c3c2OCC(=O)N3Cc2ccccc2)cn1 [Compound 50] | > 4.30
O=C1COc2c(-c3ccc(F)cc3)cn(-c3ccc(OC(F)(F)F)cc3)c(=O)c2N1Cc1ccccc1 [Compound 51] | < 3.70
CCOc1ccc(Oc2cc(=O)n(-c3ccc(OC(F)(F)F)cc3)cc2-c2cnn(C)c2)cc1Cl [Compound 155] | > 4.30
CCOc1ccc(-n2cc(-c3cn(C)nc3C(F)(F)F)c(C)cc2=O)c(C)c1 [Compound 239] | > 4.30
CCOc1ccc(-n2cc(-c3cnn(C)c3)c(Cl)cc2=O)c(C)c1 [Compound 538] | 3.70 to 4.30
CCOc1ccc(-n2cc(-c3ccc(F)cc3)c(OCCOC)cc2=O)c(C)c1 [Compound 551] | > 4.30
CCn1c(=O)oc2cc(-c3c[nH]c(=O)cc3C)ccc21 [Compound 564] | > 4.30
CCn1cnc2c(=O)n(-c3ccc(OC(F)(F)F)cc3)cc(-c3cn[nH]c3)c21 [Compound 640] | < 3.70
CCn1ncc2c(-c3cnn(C)c3)cn(-c3ccc(OC(F)(F)F)cc3)c(=O)c21 [Compound 658] | < 3.70
Cc1cc(=O)[nH]cc1-c1ccc2c(c1)N(C)C(=O)CO2 [Compound 662] | < 3.70
Cn1cc(-c2cn(-c3ccc(OC(F)(F)F)cc3)c(=O)cc2NCc2cccnn2)cn1 [Compound 664] | > 4.30
